The target of assay [1] is T1, Aminopeptidase N (Sus scrofa, UniProt P15145).
T1 sequence (P15145 whole entry): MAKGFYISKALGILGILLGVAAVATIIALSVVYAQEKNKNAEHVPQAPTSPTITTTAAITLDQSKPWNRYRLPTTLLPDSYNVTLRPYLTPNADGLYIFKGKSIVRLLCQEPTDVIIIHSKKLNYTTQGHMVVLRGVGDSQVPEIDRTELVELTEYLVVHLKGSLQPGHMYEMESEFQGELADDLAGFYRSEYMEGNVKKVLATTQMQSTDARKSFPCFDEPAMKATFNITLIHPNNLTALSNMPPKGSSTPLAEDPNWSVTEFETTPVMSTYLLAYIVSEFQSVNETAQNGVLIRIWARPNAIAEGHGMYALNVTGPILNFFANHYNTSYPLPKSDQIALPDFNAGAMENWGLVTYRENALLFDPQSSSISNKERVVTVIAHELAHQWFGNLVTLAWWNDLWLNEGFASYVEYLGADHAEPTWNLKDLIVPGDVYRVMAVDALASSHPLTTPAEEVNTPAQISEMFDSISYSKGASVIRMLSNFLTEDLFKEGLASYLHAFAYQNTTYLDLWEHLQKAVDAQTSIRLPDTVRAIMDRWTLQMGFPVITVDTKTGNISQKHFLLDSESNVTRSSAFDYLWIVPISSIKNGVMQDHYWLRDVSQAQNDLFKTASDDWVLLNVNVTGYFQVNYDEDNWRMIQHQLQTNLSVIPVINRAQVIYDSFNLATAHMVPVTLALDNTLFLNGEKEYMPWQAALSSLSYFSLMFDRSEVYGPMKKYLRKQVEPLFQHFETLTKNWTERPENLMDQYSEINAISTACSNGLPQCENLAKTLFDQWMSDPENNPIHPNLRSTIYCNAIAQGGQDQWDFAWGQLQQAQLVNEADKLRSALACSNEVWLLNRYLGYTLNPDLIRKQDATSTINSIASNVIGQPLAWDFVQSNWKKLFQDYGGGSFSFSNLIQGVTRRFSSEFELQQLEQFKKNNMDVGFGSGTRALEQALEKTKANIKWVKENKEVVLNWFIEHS
In words: Inhibition of porcine kidney microsomal aminopeptidase N using L-Leu-p-nitroanilide as substrate pre-incubated for 30 mins prior substrate addition by UV-VIS spectrophotometry.

For assay [2], the target named is T2, Aminopeptidase N (Sus scrofa) (UniProt P15145).
T2 sequence (whole entry): T1 sequence (P15145 whole entry)
In words: Ratio of bestatin IC50 to compound IC50 for porcine kidney microsomal aminopeptidase N.

In assay [3] the test system is H22. In words: Antimetastatic activity against […] H22 cells xenografted in mouse assessed as inhibition of metastasized nodes on lung surface dosed orally 6 days/week for 2 weeks. Format: functional. On the technique in general: Xenograft models place foreign cells or tissue in a host animal.
In assay [4] the test system is HL-60. Briefly: Antiproliferative activity against human HL60 cells after 48 hrs by MTT assay. Format: functional, cell-based. As to conditions: HL-60, 48 h. In general terms: Formazan colour is commonly taken as a measure of viable cells.

Structures are written as SMILES.

A word on the IC50: it is the concentration at which inhibition is half-maximal. Regarding `CC[C@@H](C)[C@H](N)C(=O)N[C@H]1CC(=O)N(CC(=O)NO)C1=O`, in assay [1], it took 1 µM to reach half-maximal inhibition (IC50).
The same measure, in the same setting: in the case of `C[C@H](N)C(=O)N[C@H]1CC(=O)N(CC(=O)NO)C1=O` it was 1 µM.
The same measure, in the same setting: then `O=C(CN1C(=O)C[C@H](NC(=O)[C@@H]2CCCN2)C1=O)NO`, with 1 µM; and `CC(C)C[C@H](N)C(=O)N[C@H]1CC(=O)N(CC(=O)NO)C1=O`, with 1 µM.
The same measure, in the same setting: in the case of `N[C@@H](Cc1ccc(O)cc1)C(=O)N[C@H]1CC(=O)N(CC(=O)NO)C1=O` it was 1 µM; in that of `CC(C)[C@H](N)C(=O)N[C@H]1CC(=O)N(CC(=O)NO)C1=O`, 1 µM.
Molecule `NCCCC[C@H](N)C(=O)N[C@H]1CC(=O)N(CC(=O)NO)C1=O` gave an IC50 in assay [1] of 1 µM.
`NCC(=O)N[C@H]1CC(=O)N(CC(=O)NO)C1=O` displayed an IC50 in assay [1] of 1 µM.
For the molecule `CC(C)C[C@H](NC(=O)[C@@H](O)[C@H](N)Cc1ccccc1)C(=O)N1CCC[C@H]1C(=O)N1CCC[C@H]1C(=O)O`, in assay [2], the Ratio IC50 was determined as 50.
As to `CC(C)C[C@H](NC(=O)[C@@H](O)[C@H](N)Cc1ccccc1)C(=O)O` [UBENIMEX], the “inhibition (INH)” value in assay [3] is 45.37%.
Turning to `Cl.N[C@@H](Cc1ccccc1)C(=O)N[C@H]1CC(=O)N(CC(=O)NO)C1=O`, the concentration for half-maximal inhibition (IC50) was found to be 1 µM in assay [1] and 149 µM in assay [4]. In assay [2], the Ratio IC50 was found to be 2.4. Further, the “inhibition (INH)” value in assay [3] came out at 54.21%.

Values taken from ChEMBL document CHEMBL1938367, “Novel potent 2,5-pyrrolidinedione peptidomimetics as aminopeptidase N inhibitors. Design, synthesis and activity evaluation” (Bioorg Med Chem Lett, 2012).
